Measured values taken from PubChem BioAssay (NCI).
Several values for one entry are separate records, joined by “and”; a condition that tells them apart may be missing. Equal entries are not always repeated.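 Each compound was tested at five concentrations against cells in 96-well plates for 48 hours. At the GI50, growth is halved. TGI marks complete inhibition of growth.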

Assays:
Assay in all cases: NCI anticancer screen, dose series, 48 h
786-0 renal = test system: 786-0 renal
A498 renal = test system: A498 renal
COLO 205 colon = test system: COLO 205 colon
KM12 colon = test system: KM12 colon
NCI-H226 lung = test system: NCI-H226 lung
OVCAR-5 ovarian = test system: OVCAR-5 ovarian
OVCAR-8 ovarian = test system: OVCAR-8 ovarian
SF-539 CNS = test system: SF-539 CNS
SK-MEL-28 melanoma = test system: SK-MEL-28 melanoma
UACC-62 melanoma = test system: UACC-62 melanoma

SMILES	TGI (786-0 renal)	GI50 (A498 renal)	TGI (A498 renal)	GI50 (COLO 205 colon)	TGI (COLO 205 colon)	GI50 (KM12 colon)	TGI (KM12 colon)	GI50 (NCI-H226 lung)	TGI (NCI-H226 lung)	TGI (OVCAR-5 ovarian)	TGI (OVCAR-8 ovarian)	GI50 (SF-539 CNS)	TGI (SF-539 CNS)	TGI (SK-MEL-28 melanoma)	TGI (UACC-62 melanoma)	GI50 (786-0 renal)	GI50 (OVCAR-5 ovarian)	GI50 (OVCAR-8 ovarian)	GI50 (SK-MEL-28 melanoma)	GI50 (UACC-62 melanoma)
NC1=N/C(=C2/CCNC(=O)c3[nH]c(Br)cc32)C(=O)N1	> 61.4 µM	45.9 µM and > 100 µM	> 100 µM	12.6 µM and 44.3 µM	> 100 µM	> 100 µM	> 100 µM	> 64 µM and 21.8 µM	> 100 µM	> 100 µM	> 100 µM	4.29 µM and 13 µM	17.3 µM and 35.5 µM	> 100 µM	> 100 µM	–	–	–	–	–
C[C@@H]1C=C2C(=O)O[C@@H]3CC[C@H](C1)[C@]23O	17.7 µM	–	38.3 µM	4.64 µM	15.7 µM	21.8 µM	61.6 µM	7.02 µM	40 µM	10.8 µM	28.6 µM	3.18 µM	11.9 µM	25.8 µM	19.6 µM	4.29 µM	2.82 µM	4.04 µM	6.17 µM	4.78 µM
COC1=CC(c2ccc[nH]2)=N/C1=C\c1ccc[nH]1	0.712 µM	3.65 µM	14.4 µM	0.0897 µM	5.7 µM	0.0698 µM	12.8 µM	0.363 µM	12.4 µM	13.7 µM	20.5 µM	0.295 µM	1.87 µM	9.35 µM	0.516 µM	0.192 µM	0.683 µM	0.232 µM	0.774 µM	0.219 µM
CC1OC(OCC2COC(O)(Oc3c(-c4ccc(O)c(O)c4)oc4cc(O)cc(O)c4c3=O)C(O)C2O)C(O)C(O)C1O (configuration not stated)	> 100 µM	–	> 100 µM	–	> 100 µM	–	> 100 µM	–	> 100 µM	> 100 µM	> 100 µM	–	> 100 µM	> 100 µM	> 100 µM	–	–	–	–	–
CCOC(=O)c1c(C(F)(F)F)n([O-])c2ccc(OC)cc2[n+]1=O	49.5 µM	11.3 µM	33.7 µM	4.13 µM	16.2 µM	7.99 µM	> 100 µM	4.07 µM	36 µM	48.6 µM	> 100 µM	7.97 µM	27 µM	> 100 µM	12 µM	6.39 µM	5.49 µM	5.12 µM	20.3 µM	2.69 µM
CCC(=C/[C@H](C)C/C=C/C(C)=C/[C@@H](C)C(=O)[C@@H](C)[C@H](O)[C@@H](C)CC)/C=C/[C@H]1OC(=O)C=C[C@H]1C	0.642 µM	< 0.01 µM	< 0.024 µM	< 0.01 µM	0.0684 µM	< 0.01 µM	0.113 µM	< 0.01 µM	0.598 µM	1.35 µM	1.27 µM	< 0.01 µM	0.439 µM	1.11 µM	0.0755 µM	< 0.01 µM	< 0.01 µM	< 0.01 µM	< 0.01 µM	< 0.01 µM
N#Cc1cc([N+](=O)[O-])ccc1NC(=O)C(=O)C(C(=O)/C=C/c1ccccc1)C1OC(=O)c2ccccc21 (configuration not stated)	> 100 µM	–	> 100 µM	–	> 100 µM	–	> 100 µM	–	> 100 µM	> 100 µM	> 100 µM	–	> 100 µM	> 100 µM	> 100 µM	–	–	–	–	–
O=C(/C=C\c1ccc(Cl)cc1Cl)c1cccs1	34.6 µM	–	39 µM	–	30.7 µM	–	38.8 µM	–	51.3 µM	41.3 µM	24.8 µM	–	36.5 µM	42.3 µM	28.3 µM	–	–	–	–	–
Cn1cc(C2=C(c3cn(CCN)c4ccccc34)C(=O)NC2=O)c2ccccc21	> 25 µM	7.79 µM	17.6 µM	2.7 µM	7.15 µM	6.69 µM	> 20.6 µM	4.44 µM	18.1 µM	> 25 µM	> 22.3 µM	4.83 µM	13.9 µM	> 25 µM	17.2 µM	8.98 µM	10.8 µM	6.3 µM	7.68 µM	5.9 µM
CCOC(=O)/C(=C/c1ccc(C#N)cc1)N(CC)CC	> 100 µM	–	> 100 µM	–	> 100 µM	–	> 100 µM	–	> 100 µM	> 100 µM	> 100 µM	–	> 100 µM	> 100 µM	> 100 µM	–	–	–	–	–
CO[C@@H]1[C@H](OC(=O)NC(=O)CCl)CC[C@]2(CO2)[C@H]1[C@@]1(C)O[C@@H]1CC=C(C)C	30 µM and 47.7 µM	38.6 µM	33.5 µM and 74 µM	9.44 µM and 2.54 µM	31.5 µM and 35.7 µM	3.36 µM	27.2 µM and 28.6 µM	23.7 µM	50.4 µM and 50.3 µM	35.2 µM	79.9 µM	21.3 µM	23.8 µM and 46.9 µM	32.8 µM and 47.9 µM	26 µM and 24.1 µM	–	3.44 µM	–	18.9 µM	6.21 µM and 4.01 µM
